This is an account of results in patent publication US10738070B2, “Mannose-derived antagonists of FimH useful for treating disease” (Fimbrion Therapeutics, Inc., priority 2016, dated 2020).

In this experiment the target is T1, FimH (Escherichia coli, UniProt Q1R2J4).
T1 construct: endogenous in cells; host or cells: E. coli UTI89 bacteria
In words: Hemagglutination inhibition (HAI) assay with UTI89 bacteria and guinea pig red blood cells. In kind it is cell-based. As to conditions: concentration reducing bacterial agglutination of guinea pig red blood cells by greater than 90%; UTI89 bacteria. How it is done:
“HAI or EC>90” is that concentration of the FimH inhibitor/antagonist which reduces the bacterial agglutination of guinea pig red blood cells by greater than 90%.
HAI Assay The hemagglutination inhibition (HAI) assay was performed with UTI89 bacteria and guinea pig red blood cells, as previously described (S. J. Hultgren, W. R. Schwan, A. J. Schaeffer, J. L. Duncan Infect. Immun. 1986, 54, 613-620). Compounds not listed were not tested.
As to `Cc1cc(Oc2cccc(C#N)c2)c([N+](=O)[O-])cc1O[C@H]1O[C@H](CO)[C@@H](O)[C@H](O)[C@@H]1O` [Example 1, 3-[4-(α-D-mannopyranosyloxy)-5-methyl-2-nitrophenoxy]benzonitrile], the “HAI titer EC>90” value was determined as 0.125 µM.
The figure for `Cc1cc(-n2cc(-c3ccccn3)nn2)ccc1O[C@H]1O[C@H](CO)[C@@H](O)[C@H](O)[C@@H]1O` [Example 3, 2-methyl-4-[4-(pyridin-2-yl)-1H-1,2,3-triazol-1-yl]phenyl α-D-mannopyranoside] is 0.062 µM; for `Cc1cc(-n2cc(-c3cccc(C(=O)O)c3)nn2)ccc1O[C@H]1O[C@H](CO)[C@@H](O)[C@H](O)[C@@H]1O` [Example 5, 2-methyl-4-[4-(3-carboxyphenyl)-1H-1,2,3-triazol-1-yl]phenyl α-D-mannopyranoside] it is 0.062 µM; for `Cc1cc(-c2ccnc(Cl)c2)ccc1OC1OC(CO)C(O)C(O)C1O` [Example 6a, 4-(2′-chloropyrid-4′-yl)-2-methylphenyl α-D-mannopyranoside] it is 0.062 µM.
With `Cc1cc(-c2ccnc(-c3ccnc(Cl)c3)c2)ccc1OC1OC(CO)C(O)C(O)C1O` [Example 6b, 4-[2′-(2″-chloropyrid-4″-yl)-pyrid-4′-yl]-2-methylphenyl α-D-mannopyranoside], the “HAI titer EC>90” value was 0.062 µM.
The figure for `Cc1cc(-c2cccc(C(=O)N3CCOCC3)c2)ccc1O[C@H]1O[C@H](CO)[C@@H](O)[C@H](O)[C@@H]1O` [Example 7, 3-methyl-3′-(morpholin-4-ylcarbonyl)biphenyl-4-yl α-D-mannopyranoside] is 0.25 µM; for `Cc1cc(-c2cccc(C(=O)N3CCNCC3)c2)ccc1O[C@H]1O[C@H](CO)[C@@H](O)[C@H](O)[C@@H]1O` [Example 8, 3-methyl-3′-(piperazin-1-ylcarbonyl)biphenyl-4-yl α-D-mannopyranoside] it is 0.25 µM; for `Cc1cc(-c2cncc(C(=O)NC(C)C)c2)ccc1O[C@H]1O[C@H](CO)[C@@H](O)[C@H](O)[C@@H]1O` [Example 9, 5-[4′-(α-D-mannopyranosyloxy)-3′-methylphenyl]-N-isopropyl-3-pyridinecarboxamide] it is 0.032 µM.
Consider `Cc1cc(-c2cccc(C(=O)NCCCCCCNC(=O)CCCCC[N+]3=C(/C=C/C=C/C=C4/c5ccc6ccccc6c5C(C)(C)N4C)C(C)(C)c4ccc5ccccc5c43)c2)ccc1OC1OC(CO)C(O)C(O)C1O.[Cl-]` [Example 10, N-(Cyanine5.5)-4′-(α-D-mannopyranosyl)-3′-methyl-[1,1′biphenyl]-3-carboxamide chloride], for which the “HAI titer EC>90” value stood at 16 µM.
Then `COC(=O)c1cncc(-c2ccc(O[C@H]3O[C@H](CO)[C@@H](O)[C@H](O)[C@@H]3O)c(C)c2)c1` [Example 11, 5-[4′-(α-D-mannopyranosyloxy)-3′-methylphenyl]-3-pyridinecarboxylic acid methyl ester], with 0.032 µM; and `Cc1cc(-c2ccc3[nH]nc(C)c3c2)ccc1O[C@H]1O[C@H](CO)[C@@H](O)[C@H](O)[C@@H]1O` [Example 12, 3-Methyl-5-[4′-(α-D-mannopyranosyloxy) 3′-methylphenyl]-1H-indazole], with 0.062 µM.
The figure for `Cc1cc(-c2ccc3[nH]nc(N)c3c2)ccc1O[C@H]1O[C@H](CO)[C@@H](O)[C@H](O)[C@@H]1O` [Example 13, 5-[4′-(α-D-mannopyranosyloxy)-3′-methylphenyl]-1H-indazol-3-amine] is 0.125 µM; for `Cc1cc(-c2cccc3cnccc23)ccc1O[C@H]1O[C@H](CO)[C@@H](O)[C@H](O)[C@@H]1O` [Example 15, 5-[4′-(α-D-mannopyranosyloxy)-3′-methylphenyl]-isoquinoline] it is 0.062 µM; for `Cc1cc(-c2cccc3c(=O)[nH]ccc23)ccc1O[C@H]1O[C@H](CO)[C@@H](O)[C@H](O)[C@@H]1O` [Example 16, 5-[4′-(α-D-mannopyranosyloxy)-3′-methylphenyl]-1(2H)-isoquinolinone] it is 0.125 µM.
Then `Cc1cc(-c2cccc3c(N)nccc23)ccc1O[C@H]1O[C@H](CO)[C@@H](O)[C@H](O)[C@@H]1O` [Example 17, 5-[4′-(α-D-mannopyranosyloxy)-3′-methylphenyl]-isoquinolin-1-amine], with 0.062 µM; and `Cc1cc(-c2cccc(-c3nnn[nH]3)c2)ccc1O[C@H]1O[C@H](CO)[C@@H](O)[C@H](O)[C@@H]1O` [Example 18, 3-Methyl-3′-(2H-tetrazol-5-yl)[1,1′-biphenyl]-4-yl α-D-mannopyranoside], with 0.125 µM; and `CNC(=O)c1cc(C(=O)NCCCCCCNC(=O)CCCCC[N+]2=C(/C=C/C=C/C=C3/c4ccc5ccccc5c4C(C)(C)N3C)C(C)(C)c3ccc4ccccc4c32)cc(-c2ccc(OC3OC(CO)C(O)C(O)C3O)c(C)c2)c1` [Example 22, N^3-(Cyanine5.5)-4′-(α-D-mannopyranosyl)-N^5,3′-dimethyl-[1,1′biphenyl]-3,5-dicarboxamide chloride], with 2 µM.
Turning to `CNC(=O)c1cc(C(=O)O)cc(-c2ccc(O[C@H]3O[C@H](CO)[C@@H](O)[C@H](O)[C@@H]3O)c(C)c2)c1` [Example 23, 4′-(α-D-mannopyranosyloxy)-3′-methyl-5-[(methylamino)carbonyl]-[1,1′biphenyl]-3-carboxylic acid], the “HAI titer EC>90” value was found to be 0.032 µM.
Take `Cc1cc(-c2cncc(C(=O)O)c2)ccc1O[C@H]1O[C@H](CO)[C@@H](O)[C@H](O)[C@@H]1O` [Example 24, 5-[4′-(α-D-mannopyranosyloxy)-3′-methylphenyl]-3-pyridinecarboxylic acid]: the “HAI titer EC>90” value came to 0.25 µM.
The figure for `Cc1cc(-c2cc3[nH]c(=O)[nH]c(=O)c3s2)ccc1O[C@H]1O[C@H](CO)[C@@H](O)[C@H](O)[C@@H]1O` [Example 25, 6-[4′-(α-D-mannopyranosyloxy)-3′-methylphenyl]-thieno[3,2-d]pyrimidine-2,4(1H,3H)-dione] is 0.024 µM; for `Cc1cc(-c2ccc3ccn(C(C)C)c(=O)c3c2)ccc1O[C@H]1O[C@H](CO)[C@@H](O)[C@H](O)[C@@H]1O` [Example 26, 2-isopropyl-7-[4′-(α-D-mannopyranosyloxy)-3′-methylphenyl]-1(2H)-isoquinolinone] it is 0.043 µM; for `Cc1cc(-c2ccc3c(c2)C(=O)N(C(C)C)CC3)ccc1O[C@H]1O[C@H](CO)[C@@H](O)[C@H](O)[C@@H]1O` [Example 27, 2-isopropyl-3,4-Dihydro-7-[4′-(α-D-mannopyranosyloxy)-3′-methylphenyl]-1(2H)-isoquinolinone] it is 0.032 µM.
Take `Cc1cc(-n2cc(-c3ccccc3N)nn2)ccc1O[C@H]1O[C@H](CO)[C@@H](O)[C@H](O)[C@@H]1O` [Example 28, 2-methyl-4-[4-(2-aminophenyl)-1H-1,2,3-triazol-1-yl]phenyl α-D-mannopyranoside]: the “HAI titer EC>90” value turned out to be 0.15 µM.
The figure for `Cc1cc(Oc2ccccc2[N+](=O)[O-])c([N+](=O)[O-])cc1O[C@H]1O[C@H](CO)[C@@H](O)[C@H](O)[C@@H]1O` [Example 29, 2-[4-(α-D-mannopyranosyloxy)-5-methyl-2-nitrophenoxy]nitrobenzene] is 1 µM.
